A value given as a limit tells only on which side of the number the result lay.

A short description of the first experiment: Antiviral activity against Influenza A virus A/WSN/33(H1N1) infected in MDCK cells assessed as inhibition of virus-induced cytopathic effect after 3 days by WST-8 assay. Format: functional, cell-based, Influenza A virus (A/WSN/1933(H1N1)). To be noted: 72 h. (Protection from cytopathic effect is a common read-out in antiviral testing.)
Usually EC50 stands for the concentration that produces a half-maximal response. Consider `O=C(O)c1cn(CC2(n3ccc4cccnc43)CCCC2)cc(O)c1=O`, for which the EC50 came out at 0.201 µM.

The nature of the next experiment: Inhibition of Influenza A virus A/WSN/33(H1N1) cap-dependent endonuclease using 3'-BHQ2 labeled 30-mer RNA as substrate after 60 mins by fluorescence assay. Also on record: species or system Influenza A virus (A/WSN/1933(H1N1)).
Settings: not given
In general, IC50 refers to the concentration that gives 50% inhibition. A higher IC50 goes with weaker potency in that assay. Regarding `O=C(O)c1cn(Cc2ccccc2)cc(O)c1=O`, 2.1 µM corresponded to half-maximal inhibition (IC50). The same measure, in the same setting: the value for `O=C(O)c1cn(CC2(c3ccccc3)CCCC2)cc(O)c1=O` was 0.0607 µM.

In turn, `O=C(O)c1cn(Cc2ccc(F)cc2)cc(O)c1=O` displayed an IC50 of 3.23 µM.

The compound `O=C(O)c1cn(CCCc2ccccc2)cc(O)c1=O` showed a concentration for half-maximal inhibition (IC50) of 1.42 µM. Still for that read-out and setting: the value for `O=C(O)c1cn(CCc2cccc(Cl)c2)cc(O)c1=O` was 0.43 µM; that for `O=C(O)c1cn(CCCCc2ccccc2)cc(O)c1=O` was 2.81 µM; that for `O=C(O)c1cn(CCc2ccc(O)cc2)cc(O)c1=O` was 2.49 µM. The same measure, in the same setting: the same measure for `Cn1cc(C2(Cn3cc(O)c(=O)c(C(=O)O)c3)CCCC2)c2ncccc21`: 0.0463 µM. The compound `Cn1cc(C2(Cn3cc(O)c(=O)c(C(=O)O)c3)CCCC2)c2ccccc21` had an IC50 of 0.0161 µM. On the same count and under the same terms, the same measure for `O=C(O)c1cn(CC2(c3ccc4cccnc4c3)CCCC2)cc(O)c1=O`: 0.0164 µM. Same read-out and setting: the value for `O=C(O)c1cn(CCc2ccccc2Cl)cc(O)c1=O` was 0.242 µM; that for `O=C(O)c1cn(CC2(c3cccc(Cl)c3)CCCC2)cc(O)c1=O` was 0.0092 µM; that for `O=C(O)c1cn(CC2(c3ccnc(-n4cccn4)c3)CCCC2)cc(O)c1=O` was 0.0179 µM. Still for that read-out and setting: the value for `O=C(O)c1cn(Cc2ccc(F)cc2)ccc1=O` was above 500 µM. In turn, `O=C(O)c1cn(CC2(c3ccc(Cl)cc3)CCCC2)cc(O)c1=O` returned a 50% inhibitory concentration (IC50) of 0.0156 µM. For the compound `O=C(O)c1cn(CC2(n3ccc4cccnc43)CCCC2)cc(O)c1=O`, half-maximal inhibition (IC50) required 0.00512 µM. On to `O=C(O)c1cn(CC2(c3ccccc3)CCC2)cc(O)c1=O`, for which the IC50 was found to be 0.105 µM. Same read-out and setting: the same measure for `O=C(O)c1cn(CC2(c3ccc4c(c3)OCO4)CCCC2)cc(O)c1=O`: 0.0163 µM; for `O=C(O)c1cn(CC2(c3ccccc3)CCCCC2)cc(O)c1=O`: 0.0618 µM; for `O=C(O)c1cn(CC2(c3ccccc3Cl)CCCC2)cc(O)c1=O`: 0.0361 µM. The same measure, in the same setting: the same measure for `O=C(O)c1cn(CCc2ccccc2)cc(O)c1=O`: 0.714 µM; for `O=C(O)c1cn(CC2(c3ccc4ccccc4c3)CCCC2)cc(O)c1=O`: 0.0284 µM. On the same count and under the same terms, the value for `O=C(O)c1cn(-c2ccc(F)cc2)cc(O)c1=O` was 6.51 µM; that for `O=C(O)c1cn(CCc2ccc(Cl)cc2)cc(O)c1=O` was 0.824 µM. In turn, `O=c1ccn(Cc2ccc(F)cc2)cc1O` came in with an IC50 above 500 µM. Same read-out and setting: the same measure for `O=C(O)c1cn(CC2(c3cccc(Oc4ccccc4)c3)CCCC2)cc(O)c1=O`: 0.043 µM. `O=C(O)c1cn(CCc2ccc(-c3ccc(F)cc3)cc2)cc(O)c1=O` came in with an IC50 of 3.73 µM. The same measure, in the same setting: the same measure for `O=C(O)c1cn(CC2(c3ccccc3)CC2)cc(O)c1=O`: 0.402 µM.

For the origin of these results see ChEMBL document CHEMBL3856241, “Discovery of novel 5-hydroxy-4-pyridone-3-carboxy acids as potent inhibitors of influenza Cap-dependent endonuclease” (Bioorg Med Chem Lett, 2016).
